The subject of this assay is BDF1 mice, L1210 leukemia sc, survival T/C. In words: NCI In Vivo Anticancer Drug Screen. Data for tumor model L1210 Leukemia (subcutaneous) in B6D2F1 (BDF1) mice. Particulars: endpoint: median survival time, higher = longer survival. The method in brief: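 Transplantable tumor-bearing mice; survival or tumor size recorded; result = T/C, treated vs vehicle control.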

[1] abbreviates: dose: 108.0 mg/kg/injection, schedule: Q01DX Z (sc), vehicle: methylcellulose (MC).
[2] abbreviates: dose: 180.0 mg/kg/injection, schedule: Q01DX Z (sc), vehicle: methylcellulose (MC).
Setting [3] is: dose: 300.0 mg/kg/injection, schedule: Q01DX Z (sc), vehicle: methylcellulose (MC).
Where [4] appears, read: dose: 500.0 mg/kg/injection, schedule: Q01DX Z (sc), vehicle: methylcellulose (MC).

SMILES strings stand for the structures. Several values for one entry are separate records, joined by “and”; a condition that tells them apart may be missing. Equal entries are not always repeated. Inconclusive results and toxic doses are left out.

As to `CC(=O)[C@@]1(O)CC[C@H]2[C@@H]3C[C@H](C)C4=CC(=O)C=C[C@]4(C)[C@@]3(F)[C@@H](O)C[C@@]21C`, the T/C reads like this: (dose: 39.0 mg/kg/injection, schedule: Q01DX Z (sc), vehicle: methylcellulose (MC)) 111 % of control; (dose: 65.0 mg/kg/injection, schedule: Q01DX Z (sc), vehicle: methylcellulose (MC)) 105 % of control; under setting [1], 111 % of control; under setting [2], 111 % of control; under setting [3], 111 % of control; under setting [4], 100 % of control.
`C1OC1CN1CCC(C2CCN(CC3CO3)CC2)CC1` (stereo unspecified): the T/C reads like this: (dose: 5.0 mg/kg/injection, schedule: Q01DX Z (sc), vehicle: methylcellulose (MC)) 109 % of control; (dose: 14.0 mg/kg/injection, schedule: Q01DX Z (sc), vehicle: methylcellulose (MC)) 109 % of control; (dose: 23.0 mg/kg/injection, schedule: Q01DX Z (sc), vehicle: methylcellulose (MC)) 104 % of control; (dose: 65.0 mg/kg/injection, schedule: Q03DX Z (sc), vehicle: methylcellulose (MC)) 109 % of control; under setting [1], 118 % of control; (dose: 180.0 mg/kg/injection, schedule: Q03DX Z (sc), vehicle: methylcellulose (MC)) 118 % of control.
For `CCOC(=O)CCC(NC(=O)N(CCCl)CCCl)C(=O)OCC` (stereo unspecified), the T/C was 106 % of control (dose: 65.0 mg/kg/injection, schedule: Q01DX Z (sc), vehicle: water); 112 % of control (dose: 108.0 mg/kg/injection, schedule: Q01DX Z (sc), vehicle: water); 100 % of control (dose: 180.0 mg/kg/injection, schedule: Q01DX Z (sc), vehicle: water); 100 % of control (dose: 300.0 mg/kg/injection, schedule: Q01DX Z (sc), vehicle: water); 112 % of control (dose: 500.0 mg/kg/injection, schedule: Q01DX Z (sc), vehicle: water).
As to `c1ccc(CNc2ncnc3[nH]ncc23)cc1`, the T/C was 115 % of control (dose: 23.3 mg/kg/injection, schedule: Q01DX Z (sc), vehicle: methylcellulose (MC)); 120 % of control (dose: 64.8 mg/kg/injection, schedule: Q01DX Z (sc), vehicle: methylcellulose (MC)); 110 % of control under setting [1]; 110 % of control under setting [2]; 100 % of control under setting [3]; 100 % of control under setting [4].
`Nc1nc(N)c2cc(CNc3ccc(C(=O)NC(CC(=O)O)C(=O)O)cc3)ccc2n1` (stereo unspecified): the T/C is 216 % of control (dose: 0.78 mg/kg/injection, schedule: Q01DX Z (sc), vehicle: saline); 200 % of control (dose: 1.56 mg/kg/injection, schedule: Q01DX Z (sc), vehicle: saline); 150 % of control (dose: 3.12 mg/kg/injection, schedule: Q01DX Z (sc), vehicle: saline); 122 % of control (dose: 6.25 mg/kg/injection, schedule: Q01DX Z (sc), vehicle: saline); 122 % of control (dose: 6.3 mg/kg/injection, schedule: Q01DX001 (sc), vehicle: saline); 116 % of control (dose: 12.5 mg/kg/injection, schedule: Q01DX001 (sc), vehicle: saline). Also, the T/C (dose: 12.5 mg/kg/injection, schedule: Q01DX Z (sc), vehicle: saline) is 111 % of control; the T/C (dose: 25.0 mg/kg/injection, schedule: Q01DX Z (sc), vehicle: saline) is 100 % of control; the T/C (dose: 50.0 mg/kg/injection, schedule: Q01DX001 (sc), vehicle: saline) is 166 % of control.
As for `CCCCN(CCCC)P(=O)(N1CC1)N1CC1`, the T/C is 110 % of control (dose: 1.8 mg/kg/injection, schedule: Q01DX Z (sc), vehicle: saline) and 110 % of control (dose: 3.0 mg/kg/injection, schedule: Q01DX Z (sc), vehicle: saline).
With `O=c1[nH]c(=O)n([C@H]2CCCO2)cc1F`, the T/C reads like this: (dose: 39.0 mg/kg/injection, schedule: Q01DX009 (ip), vehicle: water) 107 % of control; (dose: 39.0 mg/kg/injection, schedule: Q01DX009 (sc), vehicle: water) 100 % of control; (dose: 65.0 mg/kg/injection, schedule: Q01DX009 (ip), vehicle: water) 108 % of control; (dose: 65.0 mg/kg/injection, schedule: Q01DX009 (sc), vehicle: water) 109 % of control; (dose: 108.0 mg/kg/injection, schedule: Q04DX003 (ip), vehicle: water) 119 % of control; (dose: 108.0 mg/kg/injection, schedule: Q04DX003 (sc), vehicle: water) 102 % of control. The T/C reads like this: (dose: 180.0 mg/kg/injection, schedule: Q01DX009 (ip), vehicle: water) 120 % of control; (dose: 180.0 mg/kg/injection, schedule: Q01DX009 (sc), vehicle: water) 117 % of control; (dose: 180.0 mg/kg/injection, schedule: Q04DX003 (ip), vehicle: water) 120 % of control; (dose: 180.0 mg/kg/injection, schedule: Q04DX003 (sc), vehicle: water) 110 % of control; (dose: 300.0 mg/kg/injection, schedule: Q01DX009 (ip), vehicle: water) 97 % of control; (dose: 300.0 mg/kg/injection, schedule: Q01DX009 (sc), vehicle: water) 100 % of control. Further, the T/C is, setting by setting: (dose: 300.0 mg/kg/injection, schedule: Q04DX003 (ip), vehicle: water) 152 % of control; (dose: 500.0 mg/kg/injection, schedule: Q04DX003 (sc), vehicle: water) 161 % of control; (dose: 833.0 mg/kg/injection, schedule: Q04DX003 (ip), vehicle: water) 168 % of control; (dose: 833.0 mg/kg/injection, schedule: Q04DX003 (sc), vehicle: water) 106 % of control.
Take `NC(CSC(c1ccccc1)(c1ccccc1)c1ccccc1)C(=O)O` (stereo unspecified): the T/C was 114 % of control (dose: 5.0 mg/kg/injection, schedule: Q03HX003 (sc), vehicle: saline); 117 % of control (dose: 8.4 mg/kg/injection, schedule: Q03HX003 (sc), vehicle: saline); 150 % of control (dose: 23.0 mg/kg/injection, schedule: Q03HX003 (sc), vehicle: saline); 92 % of control (dose: 39.0 mg/kg/injection, schedule: Q03HX003 (sc), vehicle: saline); 150 % of control (dose: 65.0 mg/kg/injection, schedule: Q01DX009 (sc), vehicle: saline); 121 % of control (dose: 108.0 mg/kg/injection, schedule: Q04DX003 (sc), vehicle: saline). Also, the T/C reads like this: (dose: 300.0 mg/kg/injection, schedule: Q02DX005 (sc), vehicle: saline) 89 % of control; (dose: 500.0 mg/kg/injection, schedule: Q02DX005 (sc), vehicle: saline) 92 % of control; (dose: 833.0 mg/kg/injection, schedule: Q04DX003 (sc), vehicle: saline) 114 % of control.
For `COc1ccc2cc1Oc1ccc(cc1)C[C@H]1c3cc(c(OC)cc3CCN1C)Oc1c(OC)c(OC)cc3c1[C@H](C2)N(C)CC3`, the T/C is, setting by setting: (dose: 37.5 mg/kg/injection, schedule: Q01DX009 (sc), vehicle: methylcellulose (MC)) 90 % of control; (dose: 37.5 mg/kg/injection, schedule: Q01DX009 (sc), vehicle: other) 90 % of control; (dose: 39.0 mg/kg/injection, schedule: Q01DX009 (sc), vehicle: other) 100 % of control and 103 % of control; (dose: 65.0 mg/kg/injection, schedule: Q01DX009 (sc), vehicle: other) 100 % of control and 103 % of control; (dose: 75.0 mg/kg/injection, schedule: Q01DX009 (sc), vehicle: methylcellulose (MC)) 90 % of control; (dose: 75.0 mg/kg/injection, schedule: Q01DX009 (sc), vehicle: other) 92 % of control. Besides, the T/C reads like this: (dose: 108.0 mg/kg/injection, schedule: Q01DX009 (sc), vehicle: other) 94 % of control and 95 % of control; (dose: 150.0 mg/kg/injection, schedule: Q01DX009 (sc), vehicle: methylcellulose (MC)) 95 % of control; (dose: 150.0 mg/kg/injection, schedule: Q01DX009 (sc), vehicle: other) 96 % of control; (dose: 180.0 mg/kg/injection, schedule: Q01DX009 (sc), vehicle: other) 97 % of control and 100 % of control; (dose: 300.0 mg/kg/injection, schedule: Q01DX009 (sc), vehicle: other) 88 % of control and 91 % of control and 82 % of control; (dose: 600.0 mg/kg/injection, schedule: Q01DX009 (sc), vehicle: other) 70 % of control.
